The values below come from publication PMC5786306, “An AKAP-Lbc-RhoA interaction inhibitor promotes the translocation of aquaporin-2 to the plasma membrane of renal collecting duct principal cells” (PLoS ONE, 2018).

The assay has as its system Gα12- or Gαq-mediated RhoA activation in HEK293 cells. The experiment in a line: Rhotekin pulldown of active RhoA in HEK293 cells. The class given is cell-based, human. The note with it: 50 μM. Here is the method:
(A) Full length AKAP-Lbc (AKAP13) and the indicated GEFs were transiently expressed in HEK293 cells. […] (B) Scaff10 inhibits Gα12- but not Gαq-mediated RhoA activation. The indicated Gα12 and Gαq-mutants were transiently co-expressed with AKAP-Lbc and p63RhoGEF in HEK293 cells as indicated. The cells were left untreated or incubated with Scaff10 (50 μM). The fraction of active RhoA was determined using Rhotekin pulldown assays. Shown is one representative out of three experiments. All GEF constructs were in pCMV3a and Myc-tagged (30 ng per transfection). Expression of AKAP-Lbc, LARG and PDZ-RhoGEF is shown in Fig 7 of the main manuscript. […] Lower panel: Corresponding values of fluorescence to upper panel. […] Lower panel: Corresponding values of fluorescence to upper panel. (B) F norm = normalised fluorescence (fluoresence steady state/fluorescence initial state) indicated in ‰. […] The viability of the indicated cells was determined using a CellTiter-Glo®Luminescent Cell Viability Assay (Promega, Wisconsin, USA) according to the manufacturer's instructions. The assay is based on the quantification of ATP as an indicator of metabolically active cells. […] Viability was assessed after 1 and 24 h incubation with Scaff10-8 in the indicated concentrations. An equal volume of CellTiter-Glo Reagent was added, plates were shaken and luminescence monitored over time with the plates held at 22°C. […]

For the compound `COc1ccc(-c2coc3cc4oc(=O)c(C)c(C)c4cc23)cc1` [Scaff10, 3-(4-Methoxyphenyl)-5,6-dimethyl-furo[3,2-g]chromen-7-one], the “RhoA activation by constitutively active G12 (G12QL) with AKAP-Lbc” value is recorded as “abolished this activation” and the “RhoA activation through constitutively active Gq (GqRC)” value is “did not affect”.
